A melting point compilation (Tetko et al.; mined from patent text by program, amines drawn as free bases though some values may be those of a salt)

Row | Compound | melting point
1 | CCOC(=O)c1[nH]c2cc(Cl)cc(Cl)c2c1NCCC(=O)c1ccccc1Cc1ccccc1 | 208 to 209 °C
2 | Nc1ccc(C2CCC(=O)CC2)cc1 | 127 to 128 °C
3 | CC12CC(F)C3(Br)C(CCC4=CC(=O)CCC43C)C1CCC2=O (centres undefined) | 165 to 166 °C
4 | Cc1oc(-c2ccccc2)nc1COc1ccc(Cn2cc(CCC(=O)O)c(OC(C)C)n2)cc1 | 106 to 107 °C
5 | CC1(C)CCC(C)(C)c2cc(S(=O)(=O)n3c(CCCC(=O)O)cc4cc(Cl)ccc43)ccc21 | 64 to 66 °C
6 | Cc1nc2c(OCc3c(Cl)ccc(N(C)C(=O)CN)c3Cl)cccn2c1Br | 175 to 178 °C
7 | O=C(O)COc1ccc(SCc2ccc(OCc3ccc(Cl)c(Cl)c3)cc2)c2c1CCC2 | 168 °C
8 | O=C(CCN1CCOCC1)Nc1cc(-c2nnc(SCc3cccc(F)c3)o2)ccn1 | 149 to 150 °C
9 | O=C(O)c1ccc2ccc(S(=O)(=O)N(Cc3ccccc3)Cc3ccccc3)cc2c1 | 189 to 190 °C
10 | CCOC(=O)C1=C(C(OCC)OCC)NC(C)=C(C(=O)OCCCl)C1c1cccc([N+](=O)[O-])c1 (centres undefined) | 96 to 97 °C
11 | CC1c2cccc3c2N(CC3)c2ccccc2N1C(=O)CN(C)C (centres undefined) | 104 to 108 °C
12 | NC(=O)CC(CC(N)=O)c1c(Cl)cccc1Cl | 221 to 225 °C
13 | COc1cc(CNC=O)ccc1O | 83.5 °C
14 | CSc1ccc(C(=O)c2cc(C)cc3c2NC(=O)C3)cc1 | 176 to 178 °C
15 | CC(C)(C)OC(=O)CN1CC(c2cccc3ccccc23)SCC(N2C(=O)c3ccccc3C2=O)C1=O (centres undefined) | 211 to 213 °C
16 | C#Cc1ccc2c(c1)C(c1ccccc1Cl)=NCc1nnc(C)n1-2 | 304 to 306 °C
17 | CCn1c(=O)c2[nH]c(-c3ccc(S(=O)(=O)O)cc3)nc2n(CC)c1=O | > 360 °C
18 | Cc1ccc(S(=O)(=O)N(OC(C)C)c2ccc([N+](=O)[O-])cc2Cl)cc1 | 160 to 162 °C
19 | O=C(O)c1ccc(O)c(Oc2ccccc2)c1 | 181 to 183 °C
20 | O=C(Oc1ccccc1)[C@H]1O[C@@H]1C1CCCCC1 | 59 to 60 °C
21 | CC(C)Cn1c(=O)n(C)c(=O)c2cn(Cc3cccc4ccccc34)nc21 | 178 °C
22 | O=C(c1c[nH]c(=O)[nH]1)c1ccco1 | 318 to 321 °C
23 | COc1ccc(Cn2nc(NC(=O)c3cc(NC(=O)c4cc([N+](=O)[O-])nn4Cc4ccc(OC)cc4)nn3Cc3ccc(OC)cc3)cc2C(=O)O)cc1 | 258 to 260 °C
24 | Clc1cc(N2CCC(N3CCN(c4cccc5[nH]ccc45)CC3)CC2)c2ncccc2c1 | 224 °C
25 | CON=C(Cn1c(=O)ccc2ccccc21)c1ccc(N2CCCC2)cc1 | 169 to 171 °C

Row | Compound | melting point
26 | COc1cc(C(=O)c2csc(Nc3ccc(Cl)cc3)n2)cc(OC)c1OC | 165 to 166 °C
27 | CCN(CC)c1ccc(NC(=O)c2ccc(-c3[nH]nc4c3C(=O)c3c(NC(=O)NN5CCOCC5)cccc3-4)s2)cc1 | 198 to 199 °C
28 | O=C1c2cc3ccccc3cc2C(=O)c2c(Oc3ccccc3)cccc21 | 195 to 200 °C
29 | O=C(Nc1ccc(CN2C(=O)[C@H]3CCC[C@H]3N(C(=O)CN3C(=O)c4ccccc4C3=O)c3ccccc32)cc1)c1ccc(F)cc1 (relative stereo) | 244 to 246 °C
30 | COc1ccc(C(=O)NC(=O)Nc2ccc3c(c2)NC(=O)/C3=C/c2ccco2)cc1 | 278 to 283 °C
31 | O=C(O)c1ccc(-c2ccc(-c3cc(-c4ccc(-c5ccc(C(=O)O)cc5)cc4)cc(-c4ccc(-c5ccc(C(=O)O)cc5)cc4)c3)cc2)cc1 | 326 °C
32 | CC(c1ccccc1)C(CS)C(=O)NCC(=O)O (centres undefined) | 129 °C
33 | CCOC(=O)CCCCC(=O)OC[C@@H]1CC(c2ccc(-c3ccc(N4C[C@H](Cn5ccnn5)OC4=O)cc3F)cn2)=NO1 | 88 °C
34 | CCOC(=O)c1oc(Cl)nc1C | 55 to 58 °C
35 | CN(C)C/C=C/C(=O)N1CCOc2cc3ncc(C#N)c(Nc4ccc(F)c(Cl)c4)c3cc21 | 199 to 200 °C
36 | COc1cc(C=O)ccc1OCCCl | 60 to 61 °C
37 | CC(=O)Nc1ccccc1CS(=O)c1nccn1Cc1ccccn1 (centres undefined) | 146 to 148 °C
38 | COc1ccc(C2CC(=O)CCC2[N+](=O)[O-])cc1OC (centres undefined) | 147 to 148 °C
39 | CC(Oc1ncn(-c2cccc(C(F)(F)F)c2)n1)C(N)=O (centres undefined) | 147 to 149 °C
40 | CN1Cc2c(C#N)ncn2-c2ccc(F)cc2C1=O | 236 to 237 °C
41 | CN(C)S(=O)(=O)c1ccc(Oc2ccc([N+](=O)[O-])cc2)cc1 | 116 to 118 °C
42 | O=C(CO)c1cccc(Br)c1 | 100 to 101 °C
43 | N#Cc1nc(Cl)nc(N2CCS(=O)(=O)CC2)c1Cl | 198 to 199 °C
44 | CN1CCOc2cc(S(=O)(=O)n3c(COC(C)(C)C(=O)O)cc4cc(C(F)(F)F)ccc43)ccc21 | 148 to 150 °C
45 | O=[N+]([O-])c1ccccc1Oc1ccccc1Cl | 48 to 49 °C
46 | COc1cc2c(cc1C=O)C(C)(C(F)(F)F)OCC2 (centres undefined) | 82 to 93 °C
47 | CSc1ncc2cc(Cc3ccccc3)oc2n1 | 69 to 72.2 °C
48 | COC(=O)Cn1c(C)cc(Cc2ccsc2)c(NC(=O)OCc2ccccc2)c1=O | 127 to 128 °C
49 | CCCOc1ccc(N(C)S(=O)(=O)c2ccc(C)cc2)c([N+](=O)[O-])c1 | 93 to 94 °C
50 | CCCC(C)(C)C(=O)NC1CCCNC(=O)C1 (centres undefined) | 84 to 85 °C

Row | Compound | melting point
51 | Oc1ccc(-c2n[nH]c3c2Cc2ccccc2-3)cc1 | 266 to 268 °C
52 | CN(C(=O)C1CCC1)c1cccc(-c2ccnc3c(C(=O)c4ccccc4)cnn23)c1 | 168 to 170 °C
53 | COc1ccc2c(c1)CCC1C2C(OC(C)=O)CC2(C)C(OC(C)=O)CCC12 (centres undefined) | 214 to 215 °C
54 | CCOC(=O)Cc1ccc(-c2ccc3oc(C(=O)OCC)c(C)c3c2)cc1 | 110 to 112 °C
55 | O=S(=O)(CS(=O)(=O)C1CCCCC1)C1CCCCC1 | 137 to 139 °C
56 | CCCN=C(NCCC)c1cc(Cl)ccc1[N+](=O)[O-] | 63 to 64 °C
57 | O=C(O)c1cc2nc(-c3ccccc3)nn2cc1F | > 250 °C
58 | COc1ccc2[nH]c3cc(N)c4c(c3c2c1)C(=O)NC4=O | 342 to 345 °C
59 | O=C1N(CC2CCCCO2)c2ccccc2C12COc1cc3c(cc12)OCCO3 (centres undefined) | 158 to 166 °C
60 | Cn1ncnc1COc1nc2c(-c3ccccc3)nncn2c1-c1cccc(Cl)c1 | 80 to 84 °C
61 | CCCCOCc1cc2ccccc2oc1=O | 69 to 70 °C
62 | COc1cc2nc(S)[nH]c2cc1OC | 278 to 280 °C
63 | NC(=O)C(O)c1cc(F)cc2cccnc12 (centres undefined) | 169 to 171 °C
64 | CCOC(=O)NN=Cc1ccc2ccccc2n1 | 163 to 165 °C
65 | O=Cc1cc(S(=O)(=O)O)c2cccnc2c1O | 286 to 288 °C
66 | CN1CCN(C[C@H]2C(=O)Nc3ccccc3S[C@H]2c2ccccc2)CC1 (relative stereo) | 198 °C
67 | Cc1ccc(S(=O)(=O)N(CCc2cccs2)CC(=O)N[C@@H](Cc2ccccc2)C(=O)O)cc1 | > 200 °C
68 | CN(C(=O)C1c2ccccc2COc2ccc(Br)cc21)c1ccccc1 (centres undefined) | 148 °C
69 | NC(=O)c1cnn(-c2ccc(F)cc2)c1-c1ccncc1 | 215 to 216 °C
70 | CCCCn1c(=O)c2c(ncn2CCC(C)=O)n(CCCC)c1=O | 86 to 87 °C
71 | CCOC(=O)COc1cc(C(C)C)c(NC(=O)CN2CCN(CCSc3nc4ccccc4o3)CC2)c(C(C)C)c1 | 118 to 120 °C
72 | CC(C)(C)C(=O)NCCc1cccs1 | 79 to 80 °C
73 | COC(=O)Cc1ccc(C#N)cc1C | 52 to 54 °C
74 | CC(C)(C)OC(=O)CN(C(=O)CNC(=O)c1cc2ccccc2[nH]1)c1ccccc1 | 203 °C
75 | CCCCN1CC(O)N(c2cc(OC)c(Cl)cc2F)C1=S (centres undefined) | 137 to 138 °C

Row | Compound | melting point
76 | CCC1(C(=O)OC)C(=O)Nc2cccc(Cl)c2CC1c1ccc(OC)cc1 (centres undefined) | 190 to 192 °C
77 | CN1C(c2nnc(C3CCCCC3)o2)=C(OC(=O)c2ccccc2)c2ccccc2S1(=O)=O | 157 °C
78 | C#CCCOc1ccc(/C=C/C(=O)Nc2ccccc2C(=O)O)cc1OC | 178 to 180 °C
79 | O=C(CN1C(=O)C2(COc3cc4c(cc32)CCO4)c2ccccc21)Nc1ccccc1F (centres undefined) | 210 to 212 °C
80 | CC(=O)Nc1ccc2c(c1)[nH]c(=O)c(=O)n2C | 390 °C
81 | CCc1c(CNS(=O)(=O)Cc2cccc(C(F)(F)F)c2)nn(-c2ccc(Cl)cc2Cl)c1-c1ccc(Br)cc1 | 108 °C
82 | N#Cc1cc2c(nc1NC1CCCCC1)CCCC2=O | 143 to 145 °C
83 | O=C(NCCO)c1cnc(C(F)(F)F)s1 | 128 to 130 °C
84 | CN(Cc1ccccc1)C(=O)c1c(-c2ccncc2)c(-c2ccc(F)cc2)nn1CCO | 136 to 138 °C
85 | C=CCNc1nc(NCCCC)c2scc(C)c2n1 | 68 to 70 °C
86 | CN1Cc2ccc(Cl)cc2P1(=O)c1ccccc1 (centres undefined) | 159 to 162 °C
87 | Cc1cccc(Cl)c1N1CCCN(C)C1=S | 164 to 165 °C
88 | O=C1NC(=O)C(c2cn3c4c(cccc24)CCC3)C1c1cccc(O)c1 (centres undefined) | 108 to 110 °C
89 | COc1cc2c(cc1OC)-c1cc(=O)n(C)c(=O)n1CC2 | 260 to 262 °C
90 | CC(CS(=O)(=O)c1ccc(-c2ccc3c(c2)OCO3)cc1)N(O)C=O (centres undefined) | 200 to 201 °C
91 | O=C(O)Cc1c(C(=O)c2cccc(O)c2)[nH]c2cc(Cl)ccc12 | 213 to 215 °C
92 | CC(C)(C)c1cc2c(c(C(C)(C)C)c1)OC(=O)C2c1ccc2c(c1)-c1ccccc1C2 (centres undefined) | 140 to 153 °C
93 | Cc1c(NC(=O)c2ccc(OCC3CC3)cc2)ccc2cc(C(C)N3CCCC3)cnc12 (centres undefined) | 162 to 164 °C
94 | CC(=O)SCC(Cc1ccc(C)cc1)C(=O)Nc1cccc(C(=O)O)c1C (centres undefined) | 206 to 208 °C
95 | CNC(=O)C(Cc1ccc(OC)cc1)NC(=O)C(CC(C)C)C(S)CC(=O)NCC(N)=O (centres undefined) | 247 to 252 °C
96 | Cc1cc(C2=NNC(=O)CC2)ccc1CCCCNC(=O)c1cccnc1 | 160 to 161 °C
97 | O=C(O)c1ccc(Br)cc1COc1ccc2c(c1)OCO2 | 167 to 177 °C
98 | COC(=O)c1cc(I)ccc1Nc1ccccc1C(=O)O | 230 to 232 °C
99 | O=C(O)c1cc(S(=O)(=O)Cl)cc2c1OCCO2 | 210 to 215 °C
